In US9556201B2, “Bicyclic pyridines and analogs as sirtuin modulators” (GLAXOSMITHKLINE LLC, priority 2009, dated 2017):

Molecular target: T1, SIRT1 (Homo sapiens, UniProt Q96EB6)
T1 sequence (Q96EB6 1-747): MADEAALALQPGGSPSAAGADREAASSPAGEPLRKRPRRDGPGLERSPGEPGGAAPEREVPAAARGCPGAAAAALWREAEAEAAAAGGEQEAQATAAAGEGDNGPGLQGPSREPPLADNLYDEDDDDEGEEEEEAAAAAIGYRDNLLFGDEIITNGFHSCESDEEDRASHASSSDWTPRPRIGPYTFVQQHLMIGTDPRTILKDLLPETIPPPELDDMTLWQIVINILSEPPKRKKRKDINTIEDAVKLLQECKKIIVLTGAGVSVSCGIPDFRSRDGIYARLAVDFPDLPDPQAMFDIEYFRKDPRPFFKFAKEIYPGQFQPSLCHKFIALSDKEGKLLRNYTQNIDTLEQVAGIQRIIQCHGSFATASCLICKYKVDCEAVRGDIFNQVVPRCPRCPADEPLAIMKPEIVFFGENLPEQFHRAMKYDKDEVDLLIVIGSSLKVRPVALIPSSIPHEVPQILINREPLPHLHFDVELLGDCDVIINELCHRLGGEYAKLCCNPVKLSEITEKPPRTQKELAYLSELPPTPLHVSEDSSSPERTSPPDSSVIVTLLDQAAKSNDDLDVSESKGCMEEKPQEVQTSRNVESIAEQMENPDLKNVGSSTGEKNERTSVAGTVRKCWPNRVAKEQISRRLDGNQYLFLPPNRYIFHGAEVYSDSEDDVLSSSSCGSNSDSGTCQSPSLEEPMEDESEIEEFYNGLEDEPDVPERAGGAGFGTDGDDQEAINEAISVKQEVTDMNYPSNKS
Assay: Mass spectrometry based assay to identify modulators of SIRT1 activity (deacetylation of p53-based acetylated peptide substrate)
Format: biochemical
Conditions: SIRT1 activation; for Emax: 25 min, read-out: % FOLD ACT. (percent maximum fold activation)
Excerpt: A mass spectrometry based assay was used to identify modulators of SIRT1 activity. The mass spectrometry based assay utilizes a peptide having 20 amino acid residues as follows: Ac-EE-K(biotin)-GQSTSSHSK(Ac)NleSTEG-K(5TMR)-EE-NH2 (SEQ ID NO: 1) wherein K(Ac) is an acetylated lysine residue and Nle is a norleucine. The peptide is labeled with the fluorophore 5TMR (excitation 540 nm/emission 580 nm) at the C-terminus. The sequence of the peptide substrate is based on p53 with several modifications. In addition, the methionine residue naturally present in the sequence was replaced with the norleucine because the methionine may be susceptible to oxidation during synthesis and purification.
The mass spectrometry assay is conducted as follows: […] peptide substrate and 120 μM βNAD^+ is incubated with 10 nM SIRT1 for 25 minutes at 25° C. in a reaction buffer (50 mM Tris-acetate pH 8, 137 mM NaCl, 2.7 mM KCl, 1 mM MgCl2, 5 mM DTT, 0.05% BSA). Test compounds may be added to the reaction as described above. The SirT1 gene is cloned into a T7-promoter containing vector and transformed into BL21(DE3). After the 25 minute incubation with SIRT1, 10 μL of 10% formic acid is added to stop the reaction. Reactions are sealed and frozen for later mass spec analysis. Determination of the mass of the substrate peptide allows for precise determination of the degree of acetylation (i.e. starting material) as compared to deacetylated peptide (product).
A control for inhibition of sirtuin activity is conducted by adding 1 μL of 500 mM nicotinamide as a negative control at the start of the reaction (e.g., permits determination of maximum sirtuin inhibition). A control for activation of sirtuin activity is conducted using 10 nM of sirtuin protein, with 1 μL of DMSO in place of compound, to determine the amount of deacetylation of the substrate at a given timepoint within the linear range of the assay. This timepoint is the same as that used for test compounds and, within the linear range, the endpoint represents a change in velocity.
For the above assay, SIRT1 protein was expressed and purified as follows. The SirT1 gene was cloned into a T7-promoter containing vector and transformed into BL21(DE3). The protein was expressed by induction with 1 mM IPTG as an N-terminal His-tag fusion protein at 18° C. overnight and harvested at 30,000×g. Cells were lysed with lysozyme in lysis buffer (50 mM Tris-HCl, 2 mM Tris[2-carboxyethyl]phosphine (TCEP), 10 μM ZnCl2, 200 mM NaCl) and further treated with sonication for 10 min for complete lysis. The protein was purified over a Ni-NTA column (Amersham) and fractions containing pure protein were pooled, concentrated and run over a sizing column (Sephadex S200 26/60 global). The peak containing soluble protein was collected and run on an Ion-exchange column (MonoQ). Gradient elution (200 mM-500 mM NaCl) yielded pure protein. This protein was concentrated and dialyzed against dialysis buffer (20 mM Tris-HCl, 2 mM TCEP) overnight. The protein was aliquoted and frozen at −80° C. until further use.

| Compound | Emax | EC1.5 |
| --- | --- | --- |
| O=C(Nc1nccs1)N1CCOc2ccc(-c3cccc(C(F)(F)F)c3)nc21 [Compound 500, N-(thiazol-2-yl)-6-(3-(trifluoromethyl)phenyl)-2H-pyrido[3,2-b][1,4]oxazine-4(3H)-carboxamide] | > 200% | A (EC1.5<1.0 μM) |
| Cc1cnc(CNC(=O)N2CCOc3ccc(-c4cccc(C(F)(F)F)c4)nc32)cn1 [Compound 504] | ≤ 200% | C (EC1.5>25 μM) |
| O=C(Nc1ncc(CN2CCCC2)s1)N1CCOc2ccc(-c3cccc(C(F)(F)F)c3)nc21 [Compound 505, N-(5-(pyrrolidin-1-ylmethyl)thiazol-2-yl)-6-(3-(trifluoromethyl)phenyl)-2H-pyrido[3,2-b][1,4]oxazine-4(3H)-carboxamide] | ≤ 200% | C (EC1.5>25 μM) |
| O=C(Nc1ccc(CN2CCOCC2)nc1)N1CCOc2ccc(-c3cccc(C(F)(F)F)c3)nc21 [Compound 507, N-(6-(morpholinomethyl)pyridin-3-yl)-6-(3-(trifluoromethyl)phenyl)-2H-pyrido[3,2-b][1,4]oxazine-4(3H)-carboxamide] | > 200% | A (EC1.5<1.0 μM) |
| Cc1noc(NC(=O)N2CCOc3ccc(-c4cccc(C(F)(F)F)c4)nc32)c1C [Compound 509] | > 200% | B (EC1.5 1-25 μM) |
| O=C(Nc1cccc(N2CCC2)n1)N1CCOc2ccc(-c3cccc(C(F)(F)F)c3)nc21 [Compound 512, N-(6-(azetidin-1-yl)pyridin-2-yl)-6-(3-(trifluoromethyl)phenyl)-2H-pyrido[3,2-b][1,4]oxazine-4(3H)-carboxamide] | > 200% | B (EC1.5 1-25 μM) |
| O=C(Nc1ccncn1)N1CCOc2ccc(-c3cccc(F)c3)nc21 [Compound 514] | > 200% | A (EC1.5<1.0 μM) |
| COc1cccc(-c2ccc3c(n2)N(C(=O)Nc2ccncn2)CCO3)c1 [Compound 515] | > 200% | B (EC1.5 1-25 μM) |
| O=C(Nc1ccncn1)N1CCOc2ccc(-c3cccnc3)nc21 [Compound 516] | ≤ 200% | C (EC1.5>25 μM) |
| Cc1cccc(-c2ccc3c(n2)N(C(=O)Nc2ccncn2)CCO3)c1 [Compound 517] | > 200% | A (EC1.5<1.0 μM) |
| O=C(c1ccnc(OCC(O)CO)c1)N1CCOc2ccc(-c3cccc(C(F)(F)F)c3)nc21 (stereo not shown) [Compound 518, (2-(2,3-dihydroxypropoxy)pyridin-4-yl)(6-(3-(trifluoromethyl)phenyl)-2H-pyrido[3,2-b][1,4]oxazin-4(3H)-yl)methanone] | ≤ 200% | B (EC1.5 1-25 μM) |
| CN1C(=O)CN(C(=O)Nc2nccs2)c2nc(-c3cccc(C(F)(F)F)c3)ccc21 [Compound 520, 1-methyl-2-oxo-N-(thiazol-2-yl)-6-(3-(trifluoromethyl)phenyl)-2,3-dihydropyrido[2,3-b]pyrazine-4(1H)-carboxamide] | ≤ 200% | B (EC1.5 1-25 μM) |
| Cc1csc(NC(=O)N2CC(=O)N(C)c3ccc(-c4cccc(C(F)(F)F)c4)nc32)n1 [Compound 521] | ≤ 200% | B (EC1.5 1-25 μM) |
| CN1C(=O)CN(C(=O)NC2CCOC2=O)c2nc(-c3cccc(C(F)(F)F)c3)ccc21 (stereo not shown) [Compound 522] | ≤ 200% | C (EC1.5>25 μM) |
| CN1C(=O)CN(C(=O)Nc2ncco2)c2nc(-c3cccc(C(F)(F)F)c3)ccc21 [Compound 523] | ≤ 200% | C (EC1.5>25 μM) |
| CN1C(=O)CN(C(=O)Nc2ncn[nH]2)c2nc(-c3cccc(C(F)(F)F)c3)ccc21 [Compound 524] | ≤ 200% | C (EC1.5>25 μM) |
| CN1C(=O)CN(C(=O)Nc2ccncc2)c2nc(-c3cccc(C(F)(F)F)c3)ccc21 [Compound 525] | > 200% | B (EC1.5 1-25 μM) |
| CN1C(=O)CN(C(=O)Nc2ccncn2)c2nc(-c3cccc(C(F)(F)F)c3)ccc21 [Compound 526] | > 200% | B (EC1.5 1-25 μM) |
| CN1C(=O)CN(C(=O)Nc2cncnc2)c2nc(-c3cccc(C(F)(F)F)c3)ccc21 [Compound 527] | ≤ 200% | B (EC1.5 1-25 μM) |
| CN1C(=O)CN(C(=O)Nc2cccnn2)c2nc(-c3cccc(C(F)(F)F)c3)ccc21 [Compound 528] | ≤ 200% | C (EC1.5>25 μM) |
| CN1CCN(C(=O)Nc2nccs2)c2nc(-c3cccc(C(F)(F)F)c3)ccc21 [Compound 529, 1-methyl-N-(thiazol-2-yl)-6-(3-(trifluoromethyl)phenyl)-2,3-dihydropyrido[2,3-b]pyrazine-4(1H)-carboxamide] | > 200% |  |
| Cc1cnc(NC(=O)N2CCN(C)c3ccc(-c4cccc(C(F)(F)F)c4)nc32)s1 [Compound 530] | ≤ 200% | B (EC1.5 1-25 μM) |

Results, then the compound that gave them:

| Emax | EC1.5 | Compound |
| --- | --- | --- |
| > 200% | A (EC1.5<1.0 μM) | CN1CCN(C(=O)Nc2cncnc2)c2nc(-c3cccc(C(F)(F)F)c3)ccc21 [Compound 536] |
| ≤ 200% | C (EC1.5>25 μM) | CN1CCN(C(=O)NC2CCOC2=O)c2nc(-c3cccc(C(F)(F)F)c3)ccc21 (stereo not shown) [Compound 540] |
| > 200% | A (EC1.5<1.0 μM) | O=C(Nc1ccncc1)N1CCOc2ccc(-c3cccc(Cl)c3)nc21 [Compound 541, 6-(3-chlorophenyl)-N-(pyridin-4-yl)-2H-pyrido[3,2-b][1,4]oxazine-4(3H)-carboxamide] |
| > 200% | B (EC1.5 1-25 μM) | O=C(Nc1ccncc1)N1CCOc2ccc(-c3cccc(F)c3)nc21 [Compound 542] |
| > 200% | B (EC1.5 1-25 μM) | O=C(Nc1ccncc1)N1CCOc2ccc(-c3ccccc3F)nc21 [Compound 544] |
| > 200% | B (EC1.5 1-25 μM) | O=C(Nc1ccncc1)N1CCOc2ccc(-c3ccccc3C(F)(F)F)nc21 [Compound 546] |
| > 200% | A (EC1.5<1.0 μM) | O=C(Nc1cncc(F)c1)N1CCOc2ccc(-c3cccc(C(F)(F)F)c3)nc21 [Compound 547] |
| > 200% | B (EC1.5 1-25 μM) | O=C(Nc1ccncc1)N1CCCOc2ccc(-c3cccc(F)c3)nc21 [Compound 550] |
| > 200% | B (EC1.5 1-25 μM) | Cc1ccc(NC(=O)N2CCOc3ccc(-c4cccc(C(F)(F)F)c4)nc32)c(C)n1 [Compound 552] |
| ≤ 200% | B (EC1.5 1-25 μM) | Cc1cc(C)c(NC(=O)N2CCOc3ccc(-c4cccc(C(F)(F)F)c4)nc32)cn1 [Compound 553] |
| > 200% | A (EC1.5<1.0 μM) | Cc1ccc(NC(=O)N2CCOc3ccc(-c4cccc(C(F)(F)F)c4)nc32)cn1 [Compound 554] |
| ≤ 200% | B (EC1.5 1-25 μM) | Cc1ncccc1NC(=O)N1CCOc2ccc(-c3cccc(C(F)(F)F)c3)nc21 [Compound 555] |
